Laboratory results published in the NIST ThermoML archive (doi:10.1021/acs.jced.9b00424).

Experiments:
[1] = xn = mol fraction of the nth substance listed; settings: x1 = 1; for viscosity: 100 kPa, Concentric cylinders viscometry; for viscosity / mass density: Liquid; for mass density: 101 kPa, Vibrating tube method; for surface tension liquid-gas: Pendant drop shape

CC(C)[C@@H]1CC[C@@H](C)C[C@H]1O [DL-menthol] + CCCCCCCC(=O)O
[1]
Settings	mass density [kg/m3]	surface tension liquid-gas [mN/m]	viscosity [mPa·s]
303.15 K	898.2	–	33.9
303.79 K	–	21.82	–
308.15 K	892.2	–	23.19
308.76 K	–	21.35	–
313.15 K	886.4	–	16.44
314.03 K	–	20.44	–
318.15 K	881	–	12
318.76 K	–	19.91	–
323.15 K	875.8	–	9
323.45 K	–	19.18	–
328.15 K	870.8	–	6.92
328.55 K	–	18.76	–
333.09 K	–	18.15	–
333.15 K	866.2	–	5.43
338.15 K	861.7	–	4.34
343.15 K	857.6	–	3.53
348.15 K	853.7	–	2.92
353.15 K	850	–	2.446

CC(C)[C@@H]1CC[C@@H](C)C[C@H]1O (racemic) [DL-menthol]
Settings	mass density [kg/m3]	viscosity [mPa·s]
303.15 K, 100 kPa, Metastable liquid, Concentric cylinders viscometry	–	33.9
303.15 K, 101 kPa, Metastable liquid, Vibrating tube method	898.2	–
308.15 K, 100 kPa, Concentric cylinders viscometry, Liquid	–	23.19
308.15 K, 101 kPa, Vibrating tube method, Liquid	892.2	–
313.15 K, 100 kPa, Concentric cylinders viscometry, Liquid	–	16.44
313.15 K, 101 kPa, Vibrating tube method, Liquid	886.4	–
318.15 K, 100 kPa, Concentric cylinders viscometry, Liquid	–	12
318.15 K, 101 kPa, Vibrating tube method, Liquid	881	–
323.15 K, 100 kPa, Concentric cylinders viscometry, Liquid	–	9
323.15 K, 101 kPa, Vibrating tube method, Liquid	875.8	–
328.15 K, 100 kPa, Concentric cylinders viscometry, Liquid	–	6.92
328.15 K, 101 kPa, Vibrating tube method, Liquid	870.8	–
333.15 K, 100 kPa, Concentric cylinders viscometry, Liquid	–	5.43
333.15 K, 101 kPa, Vibrating tube method, Liquid	866.2	–
338.15 K, 100 kPa, Concentric cylinders viscometry, Liquid	–	4.34
338.15 K, 101 kPa, Vibrating tube method, Liquid	861.7	–
343.15 K, 100 kPa, Concentric cylinders viscometry, Liquid	–	3.53
343.15 K, 101 kPa, Vibrating tube method, Liquid	857.6	–
348.15 K, 100 kPa, Concentric cylinders viscometry, Liquid	–	2.92
348.15 K, 101 kPa, Vibrating tube method, Liquid	853.7	–
353.15 K, 100 kPa, Concentric cylinders viscometry, Liquid	–	2.446
353.15 K, 101 kPa, Vibrating tube method, Liquid	850	–

surface tension liquid-gas [mN/m]
Settings	303.79 K	308.76 K	314.03 K	318.76 K	323.45 K	328.55 K	333.09 K
Metastable liquid, Pendant drop shape	21.82	–	–	–	–	–	–
Pendant drop shape, Liquid	–	21.35	20.44	19.91	19.18	18.76	18.15

CCCCCCCC(=O)O [octanoic acid]
Liquid, Pendant drop shape
Settings	surface tension liquid-gas [mN/m]
297.82 K	30.95
302.68 K	30.04
308.49 K	28.56
312.93 K	27.56
317.8 K	26.06
322.15 K	24.99
327.39 K	24.46
331.72 K	23.43

Liquid
Settings	mass density [kg/m3]	viscosity [mPa·s]
298.15 K, 100 kPa, Concentric cylinders viscometry	–	5.17
298.15 K, 101 kPa, Vibrating tube method	917.2	–
303.15 K, 100 kPa, Concentric cylinders viscometry	–	4.54
303.15 K, 101 kPa, Vibrating tube method	910.3	–
308.15 K, 100 kPa, Concentric cylinders viscometry	–	4.01
308.15 K, 101 kPa, Vibrating tube method	903.8	–
313.15 K, 100 kPa, Concentric cylinders viscometry	–	3.59
313.15 K, 101 kPa, Vibrating tube method	897.6	–
318.15 K, 100 kPa, Concentric cylinders viscometry	–	3.2
318.15 K, 101 kPa, Vibrating tube method	891.7	–
323.15 K, 100 kPa, Concentric cylinders viscometry	–	2.88
323.15 K, 101 kPa, Vibrating tube method	886.2	–
328.15 K, 100 kPa, Concentric cylinders viscometry	–	2.609
328.15 K, 101 kPa, Vibrating tube method	880.9	–
333.15 K, 100 kPa, Concentric cylinders viscometry	–	2.372
333.15 K, 101 kPa, Vibrating tube method	876	–
338.15 K, 100 kPa, Concentric cylinders viscometry	–	2.166
338.15 K, 101 kPa, Vibrating tube method	871.4	–
343.15 K, 100 kPa, Concentric cylinders viscometry	–	1.985
343.15 K, 101 kPa, Vibrating tube method	867.1	–
348.15 K, 100 kPa, Concentric cylinders viscometry	–	1.826
348.15 K, 101 kPa, Vibrating tube method	863	–
353.15 K, 100 kPa, Concentric cylinders viscometry	–	1.683
353.15 K, 101 kPa, Vibrating tube method	859.3	–
